Tested on: sugarcane
Assay: Sugarcane flowering inhibition field trials, floral induction rated on UFSCar scale
Type: in vivo
Experimental: In order to explore the activity of florpyrauxifen as flowering inhibitor in sugarcane, field studies were carried out. Florpyrauxifen-benzyl was tested at rates from 2 to 20 grams active ingredient per hectare (g ai/ha) and compared to Ethrel® 720 (Bayer), the standard treatment. The flowering inhibition effect was assessed by checking the floral induction in sugarcane through the percentage scale recommended by UFSCar (Federal University of Sao Carlos, Sao Paulo, Brazil).
Four trials were carried out in sugarcane where florpyrauxifen-benzyl (Rinskor®), applied at a rate of 2 to 20 g ai/ha, was compared to ethephon (Ethrel® 720) applied at a rate of 475 g ai/ha. Control plots of untreated sugarcane were also evaluated. Rinskor® and Ethrel® 720 were diluted in water and a single application for each study (backpack sprayer) was performed delivering 50 L of spray solution per ha at the reproductive stage of sugarcane and at a maximum 150 days before harvest. The activity of florpyrauxifen-benzyl as a flowering inhibitor was measured via assessments (Scale of flowering inhibition—see chart 1) performed at 0, 14, 30, 45, 60, 75, 90, 120, 150 days after application, or up to harvest time. The assessments were measured in sugarcane stems, rating the flowering induction according to the UFSCar scale shown below. Significance of treatment effect was evaluated with F-approximate test (α=0.1) and least square means from different treatments were compared with Tukey's test.

COc1c(Cl)ccc(-c2nc(C(=O)OCc3ccccc3)c(Cl)c(N)c2F)c1F [Rinskor, florpyrauxifen-benzyl]
Frequency 1/1 (0%) (Table 2, 120 DAA, 5 g ai/ha): 0.0%
Frequency 2/1 (15%) (Table 2, 120 DAA, 5 g ai/ha): 0.0%
Frequency 3/1 (30%) (Table 2, 120 DAA, 5 g ai/ha): 0.0%
Frequency 4/1 (50%) (Table 2, 120 DAA, 5 g ai/ha): 0.0%
Frequency 4/2 (80%) (Table 2, 120 DAA, 5 g ai/ha): 7.5%
Frequency 4/3 (90%) (Table 2, 120 DAA, 5 g ai/ha): 20.0%
Frequency 4/4 (100%) (Table 2, 120 DAA, 5 g ai/ha): 72.5%
% Referring to Scale (Table 2, 120 DAA, 7 g ai/ha): 97.0%
Frequency 1/1 (0%) (Table 2, 120 DAA, 7 g ai/ha): 0.0%
Frequency 2/1 (15%) (Table 2, 120 DAA, 7 g ai/ha): 0.0%
Frequency 3/1 (30%) (Table 2, 120 DAA, 7 g ai/ha): 0.0%
Frequency 4/1 (50%) (Table 2, 120 DAA, 7 g ai/ha): 0.0%
Frequency 4/2 (80%) (Table 2, 120 DAA, 7 g ai/ha): 5.0%
Frequency 4/3 (90%) (Table 2, 120 DAA, 7 g ai/ha): 20.0%
Frequency 4/4 (100%) (Table 2, 120 DAA, 7 g ai/ha): 75.0%
% Referring to Scale (Table 2, 120 DAA, 10 g ai/ha): 96.8%
Frequency 1/1 (0%) (Table 2, 120 DAA, 10 g ai/ha): 0.0%
Frequency 2/1 (15%) (Table 2, 120 DAA, 10 g ai/ha): 0.0%
Frequency 3/1 (30%) (Table 2, 120 DAA, 10 g ai/ha): 0.0%
Frequency 4/1 (50%) (Table 2, 120 DAA, 10 g ai/ha): 0.0%
Frequency 4/2 (80%) (Table 2, 120 DAA, 10 g ai/ha): 10.0%
Frequency 4/3 (90%) (Table 2, 120 DAA, 10 g ai/ha): 12.5%
Frequency 4/4 (100%) (Table 2, 120 DAA, 10 g ai/ha): 77.5%
% Referring to Scale (Table 2, 120 DAA, 15 g ai/ha): 98.5%
Frequency 1/1 (0%) (Table 2, 120 DAA, 15 g ai/ha): 0.0%
Frequency 2/1 (15%) (Table 2, 120 DAA, 15 g ai/ha): 0.0%
Frequency 3/1 (30%) (Table 2, 120 DAA, 15 g ai/ha): 0.0%
Frequency 4/1 (50%) (Table 2, 120 DAA, 15 g ai/ha): 0.0%
Frequency 4/2 (80%) (Table 2, 120 DAA, 15 g ai/ha): 0.0%
Frequency 4/3 (90%) (Table 2, 120 DAA, 15 g ai/ha): 15.0%
Frequency 4/4 (100%) (Table 2, 120 DAA, 15 g ai/ha): 85.0%
% Referring to Scale (Table 2, 120 DAA, 20 g ai/ha): 97.5%
Frequency 1/1 (0%) (Table 2, 120 DAA, 20 g ai/ha): 0.0%
Frequency 2/1 (15%) (Table 2, 120 DAA, 20 g ai/ha): 0.0%
Frequency 3/1 (30%) (Table 2, 120 DAA, 20 g ai/ha): 0.0%
Frequency 4/1 (50%) (Table 2, 120 DAA, 20 g ai/ha): 0.0%
Frequency 4/2 (80%) (Table 2, 120 DAA, 20 g ai/ha): 7.5%
Frequency 4/3 (90%) (Table 2, 120 DAA, 20 g ai/ha): 10.0%
Frequency 4/4 (100%) (Table 2, 120 DAA, 20 g ai/ha): 82.5%
% Referring to Scale (Table 3, 90 DAA, 2 g ai/ha): 0.0%
Frequency 1/1 (0%) (Table 3, 90 DAA, 2 g ai/ha): 100.0%
Frequency 2/1 (15%) (Table 3, 90 DAA, 2 g ai/ha): 0.0%
Frequency 3/1 (30%) (Table 3, 90 DAA, 2 g ai/ha): 0.0%
Frequency 4/1 (50%) (Table 3, 90 DAA, 2 g ai/ha): 0.0%
Frequency 4/2 (80%) (Table 3, 90 DAA, 2 g ai/ha): 0.0%
Frequency 4/3 (90%) (Table 3, 90 DAA, 2 g ai/ha): 0.0%
Frequency 4/4 (100%) (Table 3, 90 DAA, 2 g ai/ha): 0.0%
% Referring to Scale (Table 3, 90 DAA, 5 g ai/ha): 0.0%
Frequency 1/1 (0%) (Table 3, 90 DAA, 5 g ai/ha): 100.0%
Frequency 2/1 (15%) (Table 3, 90 DAA, 5 g ai/ha): 0.0%
Frequency 3/1 (30%) (Table 3, 90 DAA, 5 g ai/ha): 0.0%
Frequency 4/1 (50%) (Table 3, 90 DAA, 5 g ai/ha): 0.0%
Frequency 4/2 (80%) (Table 3, 90 DAA, 5 g ai/ha): 0.0%
Frequency 4/3 (90%) (Table 3, 90 DAA, 5 g ai/ha): 0.0%
Frequency 4/4 (100%) (Table 3, 90 DAA, 5 g ai/ha): 0.0%
% Referring to Scale (Table 3, 90 DAA, 7 g ai/ha): 0.0%
Frequency 1/1 (0%) (Table 3, 90 DAA, 7 g ai/ha): 100.0%
Frequency 2/1 (15%) (Table 3, 90 DAA, 7 g ai/ha): 0.0%
Frequency 3/1 (30%) (Table 3, 90 DAA, 7 g ai/ha): 0.0%
Frequency 4/1 (50%) (Table 3, 90 DAA, 7 g ai/ha): 0.0%
Frequency 4/2 (80%) (Table 3, 90 DAA, 7 g ai/ha): 0.0%
Frequency 4/3 (90%) (Table 3, 90 DAA, 7 g ai/ha): 0.0%
Frequency 4/4 (100%) (Table 3, 90 DAA, 7 g ai/ha): 0.0%
% Referring to Scale (Table 3, 90 DAA, 10 g ai/ha): 0.4%
Frequency 1/1 (0%) (Table 3, 90 DAA, 10 g ai/ha): 97.5%
Frequency 2/1 (15%) (Table 3, 90 DAA, 10 g ai/ha): 2.5%
Frequency 3/1 (30%) (Table 3, 90 DAA, 10 g ai/ha): 0.0%
Frequency 4/1 (50%) (Table 3, 90 DAA, 10 g ai/ha): 0.0%
Frequency 4/2 (80%) (Table 3, 90 DAA, 10 g ai/ha): 0.0%
Frequency 4/3 (90%) (Table 3, 90 DAA, 10 g ai/ha): 0.0%
Frequency 4/4 (100%) (Table 3, 90 DAA, 10 g ai/ha): 0.0%
% Referring to Scale (Table 3, 90 DAA, 15 g ai/ha): 0.0%
Frequency 1/1 (0%) (Table 3, 90 DAA, 15 g ai/ha): 100.0%
Frequency 2/1 (15%) (Table 3, 90 DAA, 15 g ai/ha): 0.0%
Frequency 3/1 (30%) (Table 3, 90 DAA, 15 g ai/ha): 0.0%
Frequency 4/1 (50%) (Table 3, 90 DAA, 15 g ai/ha): 0.0%
Frequency 4/2 (80%) (Table 3, 90 DAA, 15 g ai/ha): 0.0%
Frequency 4/3 (90%) (Table 3, 90 DAA, 15 g ai/ha): 0.0%
Frequency 4/4 (100%) (Table 3, 90 DAA, 15 g ai/ha): 0.0%
% Referring to Scale (Table 3, 90 DAA, 20 g ai/ha): 0.0%
Frequency 1/1 (0%) (Table 3, 90 DAA, 20 g ai/ha): 100.0%
Frequency 2/1 (15%) (Table 3, 90 DAA, 20 g ai/ha): 0.0%
Frequency 3/1 (30%) (Table 3, 90 DAA, 20 g ai/ha): 0.0%
Frequency 4/1 (50%) (Table 3, 90 DAA, 20 g ai/ha): 0.0%
Frequency 4/2 (80%) (Table 3, 90 DAA, 20 g ai/ha): 0.0%
Frequency 4/3 (90%) (Table 3, 90 DAA, 20 g ai/ha): 0.0%
Frequency 4/4 (100%) (Table 3, 90 DAA, 20 g ai/ha): 0.0%
% Referring to Scale (Table 3, 120 DAA, 2 g ai/ha): 5.6%
Frequency 1/1 (0%) (Table 3, 120 DAA, 2 g ai/ha): 62.5%
Frequency 2/1 (15%) (Table 3, 120 DAA, 2 g ai/ha): 37.5%
Frequency 3/1 (30%) (Table 3, 120 DAA, 2 g ai/ha): 0.0%
Frequency 4/1 (50%) (Table 3, 120 DAA, 2 g ai/ha): 0.0%
Frequency 4/2 (80%) (Table 3, 120 DAA, 2 g ai/ha): 0.0%
Frequency 4/3 (90%) (Table 3, 120 DAA, 2 g ai/ha): 0.0%
Frequency 4/4 (100%) (Table 3, 120 DAA, 2 g ai/ha): 0.0%
% Referring to Scale (Table 3, 120 DAA, 5 g ai/ha): 6.9%
Frequency 1/1 (0%) (Table 3, 120 DAA, 5 g ai/ha): 62.5%
Frequency 2/1 (15%) (Table 3, 120 DAA, 5 g ai/ha): 32.5%
Frequency 3/1 (30%) (Table 3, 120 DAA, 5 g ai/ha): 2.5%
Frequency 4/1 (50%) (Table 3, 120 DAA, 5 g ai/ha): 2.5%
Frequency 4/2 (80%) (Table 3, 120 DAA, 5 g ai/ha): 0.0%
Frequency 4/3 (90%) (Table 3, 120 DAA, 5 g ai/ha): 0.0%
Frequency 4/4 (100%) (Table 3, 120 DAA, 5 g ai/ha): 0.0%
% Referring to Scale (Table 3, 120 DAA, 7 g ai/ha): 3.0%
Frequency 1/1 (0%) (Table 3, 120 DAA, 7 g ai/ha): 80.0%
Frequency 2/1 (15%) (Table 3, 120 DAA, 7 g ai/ha): 20.0%
Frequency 3/1 (30%) (Table 3, 120 DAA, 7 g ai/ha): 0.0%
Frequency 4/1 (50%) (Table 3, 120 DAA, 7 g ai/ha): 0.0%
Frequency 4/2 (80%) (Table 3, 120 DAA, 7 g ai/ha): 0.0%
Frequency 4/3 (90%) (Table 3, 120 DAA, 7 g ai/ha): 0.0%
Frequency 4/4 (100%) (Table 3, 120 DAA, 7 g ai/ha): 0.0%
% Referring to Scale (Table 3, 120 DAA, 10 g ai/ha): 4.1%
